From the supplement of paper PMC10949913

Experiments:
Settings in all cases: 48 h
NCI-H295R [1] = assay: AC50 viability; higher = less potent
How it was run: (§1)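 Concentration-response curves were fitted to obtain AC50 and area under the curve, keeping inhibitory or non-responding curve classes only. Data came from CellTiter-Glo luminescence, normalised per plate to vehicle and empty-well controls, in three adrenocortical carcinoma cell lines. These were treated in 1,536-well plates with library compounds at 11 concentrations and read after 48 h.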

CU-ACC2 [2] = assay: AC50 viability; higher = less potent
How it was run: as §1

CU-ACC1 [3] = assay: AC50 viability; higher = less potent
How it was run: as §1

NCI-H295R [4] = assay: area under concentration-response curve (viability) (AUC (a.u.)); higher = less active
How it was run: as §1

CU-ACC2 [5] = assay: as above
How it was run: as §1

CU-ACC1 [6] = assay: as above
How it was run: as §1

Row | Structure (SMILES) | AC50 viability (NCI-H295R [1]) | AC50 viability (CU-ACC2 [2]) | AC50 viability (CU-ACC1 [3]) | area under concentration-response curve (NCI-H295R [4]) | area under concentration-response curve (CU-ACC2 [5]) | area under concentration-response curve (CU-ACC1 [6])
1 | Clc1ccc(C2(c3ccc(-c4cn[nH]c4)cc3)CCNCC2)cc1 | 18.6 µM | 23.5 µM | 18.6 µM | 399 | 423 | 419
2 | CC(C)[C@H](C(=O)Nc1ccc(C(=O)NO)cc1)c1ccccc1 | 2.35 µM | 5.25 µM | 4.17 µM | 414 | 360 | 308
3 | CC(C)C[C@H](NC(=O)[C@H](CCc1ccccc1)NC(=O)CN1CCOCC1)C(=O)N[C@@H](Cc1ccccc1)C(=O)N[C@@H](CC(C)C)C(=O)[C@@]1(C)CO1 | 0.166 µM | 0.0235 µM | 0.186 µM | 359 | 256 | 302
4 | Cc1cc(CN2CCN(c3c(Br)cnc4[nH]c(-c5ccc(N6CCN(C)CC6)cc5)nc34)CC2)no1 | 26.3 µM | 20.9 µM | 0.934 µM | 425 | 478 | 459
5 | COC(=O)c1ccc2c(c1)NC(=O)/C2=C(\Nc1ccc(N(C)C(=O)CN2CCN(C)CC2)cc1)c1ccccc1 | 8.33 µM | 7.42 µM | 20.9 µM | 483 | 528 | 504
6 | Cn1ncc(Cl)c1-c1cc(C(=O)NC(CN)Cc2ccc(F)c(F)c2)oc1Cl (configuration not stated) | 5.9 µM | 16.6 µM | 6.61 µM | 403 | 422 | 393
7 | C[N]1C=NC=C1C(N)(C2=CC=C(Cl)C=C2)C3=CC\4=C(C=C3)N(C)C(=O)\C=C4C5=CC(=CC=C5)Cl (configuration not stated) | 6.61 µM | 11.8 µM | 11.8 µM | 397 | 298 | 336
8 | CC(C)c1cc(CNc2nc(Nc3cc(C4CC4)[nH]n3)cc(N3CCN(C)CC3)n2)on1 | 5.9 µM | 2.95 µM | 8.33 µM | 411 | 325 | 429
9 | CC(C)N1N/C(=C2\C=c3cc(O)ccc3=N2)c2c(N)ncnc21 | 2.09 µM | 2.63 µM | 1.66 µM | 472 | 520 | 401
10 | O=C(NO)c1cnc(N2C[C@H]3C[C@@H]2CN3c2cc(C(F)(F)F)ccn2)nc1 | 1.66 µM | 10.5 µM | 7.42 µM | 488 | 538 | 385
11 | CCN1CCN(Cc2ccc(-c3cc4c(N[C@H](C)c5ccccc5)ncnc4[nH]3)cc2)CC1 | 18.6 µM | 23.5 µM | 23.5 µM | 492 | 534 | 452
12 | COc1cc2ncnc(Nc3ccc(F)c(Cl)c3)c2cc1NC(=O)/C=C/CN1CCCCC1 | 6.61 µM | 8.33 µM | 10.5 µM | 459 | 493 | 414
13 | NC[C@@](O)(c1ccc(Cl)cc1)c1ccc(-c2cn[nH]c2)cc1 | 8.33 µM | 14.8 µM | 7.42 µM | 485 | 529 | 463
14 | C[S+](=O)([O-])N1CCN(Cc2cc3nc(-c4cccc5[nH]ncc45)nc(N4CCOCC4)c3s2)CC1 | 0.661 µM | 16.6 µM | 0.934 µM | 406 | 402 | 420
15 | CCCc1cc(C(=O)N[C@H](Cc2ccc(-c3cccc(OC(F)(F)F)c3)nc2)C(=O)N[C@@H]2CCNC2)sc1C | 18.6 µM | 18.6 µM | 13.2 µM | 469 | 447 | 452
16 | COc1cc(C)c(Sc2cnc(NC(=O)c3ccc(CNC(C)C(C)C)cc3)s2)cc1C(=O)N1CCN(C(C)=O)CC1 (configuration not stated) | 14.8 µM | 16.6 µM | 37.2 µM | 478 | 527 | 466
17 | CO[C@H]1/C=C\C=C(\C)C(=O)NC2=CC(=O)C(NCCN(C)C)=C(C[C@@H](C)C[C@H](OC)[C@H](O)[C@@H](C)/C=C(/C)[C@@H]1OC(N)=O)C2=O | 3.72 µM | 0.833 µM | 1.66 µM | 451 | 460 | 335
18 | C=CC(=O)Nc1cccc(Oc2nc(Nc3ccc(N4CCN(C)CC4)cc3)nc3ccsc23)c1 | 5.9 µM | 8.33 µM | 5.9 µM | 337 | 330 | 277
19 | CC1(C)CC(=O)c2c(C(F)(F)F)nn(-c3ccc(C(N)=O)c(NC4CCC(OC(=O)CN)CC4)c3)c2C1 (configuration not stated) | 1.05 µM | 0.417 µM | 1.05 µM | 431 | 426 | 362
20 | COc1ccc(-c2nc(N3CCOCC3)c3sc(CN(C)c4ncc(C(=O)NO)cn4)cc3n2)cn1 | 0.059 µM | 0.186 µM | 0.0417 µM | 285 | 281 | 211
21 | C=C1/C(=C\C=C2/CCC[C@]3(C)[C@@H]([C@H](C)/C=C/[C@H](C)C(C)C)CC[C@@H]23)C[C@@H](O)C[C@@H]1O | 7.42 µM | 7.42 µM | 6.61 µM | 372 | 400 | 381
22 | COc1cc(-c2nn(C3CCC(N4CCN(C(C)=O)CC4)CC3)c3ncnc(N)c23)ccc1NC(=O)c1cc2ccccc2n1C (configuration not stated) | 9.34 µM | 10.5 µM | 8.33 µM | 460 | 512 | 418
23 | OCCNC1CCCc2c1[nH]c1ccc(-c3ccccc3)cc21 (configuration not stated) | 10.5 µM | 23.5 µM | 20.9 µM | 456 | 526 | 462
24 | CCNCCc1ccc(CN(CC)c2cc(OC)ccc2[C@@H]2CCc3cc(O)ccc3C2)cc1 | 7.42 µM | 7.42 µM | 9.34 µM | 440 | 515 | 447
25 | CNC(=O)CCc1cc(-c2ccc(-c3ccc(C(F)(F)F)cc3)cc2)n(-c2ccc(N3CCNCC3)cc2)n1 | 8.33 µM | 7.42 µM | 4.68 µM | 487 | 476 | 432
26 | CCN(CC)Cc1ccc2cc(COC(=O)Nc3ccc(C(=O)NO)cc3)ccc2c1 | 9.34 µM | 4.68 µM | 3.72 µM | 382 | 390 | 365

Row | Structure (SMILES) | AC50 viability (NCI-H295R [1]) | AC50 viability (CU-ACC2 [2]) | AC50 viability (CU-ACC1 [3]) | area under concentration-response curve (NCI-H295R [4]) | area under concentration-response curve (CU-ACC2 [5]) | area under concentration-response curve (CU-ACC1 [6])
27 | COC(=O)Nc1cc(Nc2cc(NC3CC3)c3ncc(C#N)n3n2)c(Cl)c(N2CCN(C)CC2)c1 | 2.63 µM | 6.61 µM | 6.61 µM | 443 | 506 | 466
28 | Cc1cc(-c2ccc(CC(=O)Nc3ccc(-c4cccnc4)cc3)cc2)ccn1 | 16.6 µM | 23.5 µM | 20.9 µM | 440 | 460 | 435
29 | CC(=O)c1cc2c(o1)C(=O)c1ccccc1C2=O | 0.934 µM | 1.66 µM | 0.263 µM | 351 | 377 | 270
30 | CC[C@H]1CN2CCc3cc(OC)c(OC)cc3[C@@H]2C[C@@H]1C[C@H]1NCCc2cc(OC)c(OC)cc21 | 1.66 µM | 0.934 µM | 0.59 µM | 412 | 463 | 366
31 | CC1(C)CC(=O)c2c(C(F)(F)F)nn(-c3ccc(C(N)=O)c(NC4CCC(O)CC4)c3)c2C1 (configuration not stated) | 0.833 µM | 0.295 µM | 1.05 µM | 455 | 416 | 359
32 | Cc1cc2cc(Oc3ccnc(Nc4cccc(C[S+](=O)([O-])NCCN(C)C)c4)n3)ccc2[nH]1 | 23.5 µM | 23.5 µM | 20.9 µM | 468 | 480 | 493
33 | Nc1cc(C(F)(F)F)c(-c2nc(N3CCOCC3)nc(N3CCOCC3)n2)cn1 | 3.72 µM | 16.6 µM | 5.25 µM | 441 | 413 | 381
34 | COc1cc(OCc2cccc(-c3ccccc3)c2C)cc(OC)c1CN1CCCC[C@H]1C(=O)O | 18.6 µM | 20.9 µM | 16.6 µM | 514 | 546 | 444
35 | C=CC(=O)Nc1cccc(Oc2nc(Nc3ccc(N4CCN(C)CC4)cc3)ncc2Cl)c1 | 5.9 µM | 9.34 µM | 8.33 µM | 431 | 402 | 428
36 | Nc1nc(Nc2ccc([S+](N)(=O)[O-])cc2)nn1C(=O)c1c(F)cccc1F | 20.9 µM | 3.32 µM | 11.8 µM | 488 | 466 | 443
37 | COc1cc(C(=O)NC2CCN(C)CC2)c(F)cc1Nc1ncc2c(n1)N(C1CCCC1)CC(F)(F)C(=O)N2C | 4.68 µM | 14.8 µM | 16.6 µM | 400 | 393 | 412
38 | C[N]1C=C(C=N1)C2=CC=C3N=CC\4=C(N(C(=O)\C=C4)C5=CC6=C(CCN6C(=O)C=C)C=C5)C3=C2 | 0.723 µM | 0.723 µM | 0.407 µM | 399 | 433 | 349
39 | O=C(/C=C/c1cccc([S+](=O)([O-])Nc2ccccc2)c1)NO | 3.72 µM | 5.25 µM | 3.72 µM | 404 | 429 | 362
40 | CO[C@H]1CC[C@H](N2C(=O)CNc3ncc(-c4ccc(C(C)(C)O)nc4)nc32)CC1 | 18.6 µM | 18.6 µM | 16.6 µM | 502 | 570 | 462
41 | CC[C@H]1/C=C\C=C/C[C@@H](C)[C@H](O)[C@@](C)(O)C(=O)[C@@H](C)[C@H](O)[C@@H](C)C(=O)[C@@H](C)[C@H](O)[C@@H](C)/C=C/C(=O)O[C@@H]2[C@H](C)[C@H](CC1)O[C@]1(CC[C@H](C)[C@H](C[C@@H](C)O)O1)[C@H]2C | 1.32 µM | 7.42 µM | 0.00186 µM | 326 | 402 | 193
42 | Nc1ccccc1NC(=O)c1ccc(CNc2nccc(-c3cccnc3)n2)cc1 | 2.35 µM | 5.25 µM | 2.09 µM | 339 | 445 | 309
43 | COC(=O)N[C@H](C(=O)N1CCC[C@H]1c1ncc(-c2ccc(-c3ccc(-c4cnc([C@@H]5CCCN5C(=O)[C@@H](NC(=O)OC)C(C)C)[nH]4)cc3)cc2)[nH]1)C(C)C | 23.5 µM | 23.5 µM | 18.6 µM | 508 | 561 | 506
44 | CNCCCC12CCC(c3ccccc31)c1ccccc12 | 16.6 µM | 23.5 µM | 23.5 µM | 464 | 564 | 488
45 | Cc1ccc(NC(=O)c2ccc(CN3CCN(C)CC3)cc2)cc1Nc1nc(-c2cccnc2)cs1 | 18.6 µM | 23.5 µM | 23.5 µM | 547 | 586 | 503
46 | CCN(CC)CCNC(=O)c1ccc2nc(-c3ccccc3)c(-c3ccc(CN4CCC(n5c(=O)[nH]c6ccccc65)CC4)cc3)nc2c1 | 9.34 µM | 7.42 µM | 9.34 µM | 440 | 479 | 444
47 | CN(C)c1cc2c(cc1Sc1nc3c(N)nccc3n1CCNCC(C)(C)C)OCO2 | 2.35 µM | 2.95 µM | 2.95 µM | 467 | 499 | 391
48 | CC(C)(Cc1ccc2ccccc2c1)NC[C@@H](O)COc1cccc(Cl)c1C#N | 9.34 µM | 7.42 µM | 9.34 µM | 480 | 530 | 460
49 | COc1ccc(C(=O)c2c(C)n(CCN3CCOCC3)c3ccccc23)cc1 | 5.25 µM | 5.25 µM | 10.5 µM | 402 | 431 | 389
50 | O=C(CCCCCCC(=O)N/N=C/c1ccc(N(c2ccccc2)c2ccccc2)cc1)NO | 1.18 µM | 10.5 µM | 6.61 µM | 382 | 371 | 381
51 | Cc1ccc(C(=O)Nc2cccc(C(F)(F)F)c2)cc1Nc1nc(-c2cccnc2)nc2c1cnn2C | 18.6 µM | 20.9 µM | 23.5 µM | 477 | 515 | 440
52 | C=CC(=O)Nc1cccc(Oc2nc(Nc3ccc(N4CCN(C)CC4)cc3OC)ncc2Cl)c1 | 9.34 µM | 7.42 µM | 8.33 µM | 502 | 526 | 442
